Measured values: patent publication US9156826B2, “Asymmetrical reversible neuromuscular blocking agents of ultra-short, short, or intermediate duration” (Cornell University, priority 2012, dated 2015)

System: mean arterial pressure
Test: Rise in mean arterial pressure after cysteine dosing
Details: 100 mg/kg

SMILES: N[C@H](CS)C(=O)O [D-cysteine]
- rise in mean arterial pressure compared with L-cysteine: less of a rise in mean arterial pressure than L-cysteine
